According to patent publication US6579696B1, “Polymyxin B conjugates” (priority 1992, dated 2003):
Read-outs that look alike come from different tables or passages of the source.

Legend:
Staph. aureus = assay type: binding; details: bacteria coated at 5.0 ug/ml, washed
Experimental: (§1) Staph. aureus and E. coli 0111: B4 were cultured in TSB media at 37 degrees C with shaking. Cells were collected by centrifugation and suspended in 50 mM sodium phosphate buffer, pH 6.8. The cells were again collected by centrifugation and suspended in […] sodium phosphate buffer containing 0.025% sodium azide (buffer).
(§2) The bacteria were diluted with buffer to an absorbance of 1.0 at 620 nm. PMB-Cys-Mal-FL was added to 2.5 ml of each diluted bacterial suspension, to a final concentration of 5.0 ug/ml. The suspensions were incubated at ambient temperature for 5 minutes. The bacteria were collected by centrifugation and suspended in buffer, repeated for a total of three times. The bacteria were then suspended in buffer and Tween 20 detergent was added to a final concentration of 0.1%. The bacteria were again collected by centrifugation and suspended in 1.5 ml buffer without Tween 20.
(§3) The bacteria were diluted 10 fold with buffer and fluorescence was measured in a Sequoia-Turner model 450 Fluorometer using NB490 and SC515 filters with the gain at 5. Mouse monoclonal anti-fluorescein antibody 4-4-20 was added with mixing to the bacterial suspensions. Table 50 summarizes the experimental results.

E. coli 0111: B4 = assay type: binding; details: bacteria coated at 5.0 ug/ml, washed; no antibody
Experimental: as §1, §2, §3

E. coli J5 [1] = assay type: cell-based; design: key: −: no agglutination; +: microagglutination; +++: macroagglutination; details: for Agglutination by avidin beads: Table 53
Experimental: (§4) 100 ul polystyrene beads (Spherotech […], 5% w/v) were aliquoted to two 1.5 mL microcentrifuge tubes, centrifuged 1 min at 12,000 g in microcentrifuge and washed 2×with 1 ml PBS (vortexed and recentrifuged 1-2 min after each wash). The beads were resuspended in 900 ul PBS, and 100 ul of 1 mg/ml solution of avidin (Sigma) added, and the tubes rotated overnight at room temperature. The beads were pelleted, and washed sequentially as described above with 1 ml PBS, PBS+0.5% tween 20 (PBST), and PBS, and each sample resuspended in 200 ul PBS. The samples were pooled and stored at 4 degrees.
(§5) 20 ul avidin coated beads were aliquoted into 2×1.5 ml microcentrifuge tubes, and non-specifically binding sites blocked by rotating with 1 ml PBS+1% BSA for 1 hr at room temperature. […] The samples were pelleted, and washed with 1 ml PBS, repelleted and resuspended with 20 ul PBS. III Bacterial Agglutination Assays
(§6) 5 ul of each resin was added to 20 ul bacteria (1/10 dilution of a saturated overnight culture) in independant depression wells (2 wells/bacteria tested). The samples were incubated 30 min at 37 degrees, swirled, and agglutination scored. (Note that −=no agglutination, +=microagglutination and +++=macroagglutination)
To determine if free Immunoadaptor™ compounds can also stably bind surface exposed bacterial structures, agglutination assays were performed using bacteria prebound to Immunoadaptor™ compounds. The assay was performed with J5 bacteria, since the agglutination signal (see table above) was the strongest with this strain. 40 ul avidin coated resin was blocked for 1 hr at room temperature with 1 ml PBS+1% BSA, pelleted as described above, and resuspended in 40 ul PBS. […] The following assays were performed:
Incubated 1 hr at 37 degrees in depression well, swirled and agglutination scored.
Incubated 10 min at 37 degrees then added 5 ul avidin coated beads. Incubated 1 hr at 37 degrees in depression well, swirled and agglutination scored.
Incubated 15 min at 37 degrees, pelleted cells by centrifugation, washed with 100 ul PBS (resuspended cells with micropipetter) and repelleted. Cells were resuspended in 80 ul PBS, 20 ul aliquots distributed to depression well, 5 ul avidin coated beads added, and, incubated 1 hr at 37 degrees, swirled and agglutination scored.

[2] = system: J5 bacteria phagocytosed by J774A.1 mouse macrophage cell line; assay type: cell-based
E. coli 0111:B4 [3] = system: E. coli 0111:B4
H16 bacterial strain = assay type: binding; details: 1 ug/ml, Extravidin and anti-avidin chase
E. coli 0111:B4 bacteria = assay type: binding; details: in °C (unit assumed)
[4] = system: mouse monoclonal anti-fluorescein antibody (#4-4-20); assay type: binding
Excerpt: Millipolarization data was hand calculated using the above equations as described for the fully automated instrument. Total intensity is not represented in the following tables. Table 48 illustrates the reactivity of PMB-Cys-Fl when reacted with mouse monoclonal anti-fluorescein antibody (#4-4-20) obtained from Edward M. Voss at the University of Illinois Urbana.

E. coli J5 [5] = assay type: cell-based; details: Table 40
E. coli 0111:B4 [6] = assay type: cell-based; design: key: −: no agglutination; +: microagglutination; +++: macroagglutination; details: avidin beads loaded with compound
Experimental: as §4, §5, §6

Salmonella 34576 = assay type: cell-based; design: key: −: no agglutination; +: microagglutination; +++: macroagglutination; details: avidin beads loaded with compound
Experimental: as §4, §5, §6

E. coli HB101 = assay type: cell-based; design: key: −: no agglutination; +: microagglutination; +++: macroagglutination; details: avidin beads loaded with compound
Experimental: as §4, §5, §6

[7] = target: avidin and chicken anti-PMB antibody (Gallus gallus, UniProt P02701)
Chain of avidin and chicken anti-PMB antibody (P02701 25-152): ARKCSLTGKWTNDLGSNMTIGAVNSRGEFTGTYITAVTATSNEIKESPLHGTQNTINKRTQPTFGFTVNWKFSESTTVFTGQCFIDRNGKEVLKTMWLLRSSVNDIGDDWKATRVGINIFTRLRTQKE
Experimental: The capture ELISA was performed as described below. […] The coating suspensions were decanted, and all wells were washed three times using PBS+0.5% Tween 20 (PBST). In order to block non-specific binding sites, 100 ul of 1% BSA (Sigma, St. Louis, Mo.) in PBS (blocking solution) was then added to each well, and the plates were incubated for 1 hr. at 37° C.
The blocking solution was decanted, and duplicate samples of 150 ul of either PMB-Cy-Biotin or PMB-Cy-Fl added to the first well of a dilution series. The initial testing concentration of the premixed conjugate was 10 ng/ml in blocking buffer (see above), followed by 5 fold dilutions in blocking buffer. This was accomplished by serially transferring 30 ul aliquots to 120 ul buffer, mixing, and repeating the dilution into a fresh well. After the final dilution, 30 ul was removed from the well such that all wells contained 120 ul final volume. A total of 2 such dilutions were performed. […] Following this incubation, the serially diluted samples were decanted, and the wells were washed six times using PBST (Phosphate-Buffered Saline with Tween). To each well, 100 ul of 1/1000 diluted chicken anti-PMB antibody or chicken preimmune, diluted in blocking buffer was added, and the plate incubated 1 hr at 37° C. The antibody solutions were decanted and the plates were washed as described above. To each well, 100 ul of 1/1000 diluted rabbit anti-chicken IgG alkaline phosphatase (Sigma) diluted in blocking buffer was added, and the plate incubated 1 hr at 37° C. The antibody solutions were decanted and the plates were washed as described above, substituting 50 nM Na2CO3, pH 9.5 for the PBST in the final wash. The plates were developed by the addition of 100 ul of a solution containing 1 mg/ml para-nitro phenyl phosphate (Sigma, St. Louis, Mo.) dissolved in 50 nM Na2CO3, 10 mM MgCl2, pH 9.5 to each well, and incubating the plates at room temperature in the dark overnight. […] Only the ELISA readings from the maximally diluted samples in each dilution series are shown.

polymyxin B—cystiene—Maleimamide—fluorescein [PMB-Cys-Mal-FL]
FLUORESCENCE of coated bacteria (Staph. aureus): 5 AFU | FLUORESCENCE of coated bacteria (E. coli 0111: B4): 40 AFU | Agglutination by avidin beads (E. coli J5 [1]; Chase format): − | Agglutination by avidin beads (E. coli J5 [1]; Premix format): − | Agglutination by avidin beads (E. coli J5 [1]; Wash + Chase format): − | Agglutination (E. coli J5 [1]; avidin beads loaded with compound): − | % Macrophage with phagocytosed bacteria ([2]; Table 59, 0.5 ug/ml then 10 ug/ml anti-fluorescein antibody (chase)): 40% | % Macrophage with phagocytosed bacteria ([2]; Table 59, 0.5 ug/ml with 10 ug/ml anti-fluorescein antibody (premix)): 29% | % Macrophage with phagocytosed bacteria ([2]; Table 59, opsonin alone): 15% | Recovered bacterial colonies ([2]; Table 59, opsonin alone): 29 | Recovered bacterial colonies ([2]; Table 59, then anti-fluorescein antibody (chase)): 76 | Recovered bacterial colonies ([2]; Table 59, with anti-fluorescein antibody (premix)): 52 | % Macrophage with phagocytosed bacteria ([2]; Table 60, 1×10^8 J5 bacteria opsonized, from 100 macrophage examined, conjugates 0.5 ug/ml, anti-avidin 1/500, anti-fluorescein antibody 25 ug/ml): 5% | % Macrophage with phagocytosed bacteria ([2]; Table 61 (repeat assay), 1×10^8 J5 bacteria opsonized, from 100 macrophage examined, conjugates 0.5 ug/ml, anti-avidin 1/400, anti-fluorescein antibody 14 ug/ml): 8% | enhancement of phagocytosis (in words) ([2]; with anti-fluorescein antibody): Clear elevation of phagocytosis | MIC (E. coli 0111:B4 [3]; Table 40, first number of the cell): 0.9 µg/mL | MIC (E. coli 0111:B4 [3]; Table 44): 1 µg/mL | ELISA titer (H16 bacterial strain; 2 × 10^5 bacteria): 0.005 | ELISA titer (H16 bacterial strain; 2 × 10^6 bacteria): 0.162 | mP (E. coli 0111:B4 bacteria; E. coli (2.7 × 10^8 bacteria) & PMB-Cys-Mal-Fl): 256.8 | mP (E. coli 0111:B4 bacteria; PMB-Cys-Mal-Fl (10^−8 M) alone): 57.3 | mP ([4]; PMB-Cys-Mal-FL 10^−7 M alone): 32.5 | mP ([4]; antibody 5 × 10^-8 M & PMB-Cys-Mal-FL 10^-7 M): 390.3 | quenching of the intensity signal by anti-fluorescein antibody ([4]; not represented in Table 48): 95% | MIC (E. coli J5 [5]): 0.8 µg/mL | Agglutination (E. coli 0111:B4 [6]): − | Agglutination (Salmonella 34576): − | Agglutination (E. coli HB101): − | ELISA absorbency at 410 nm ([7]; Anti-PMB test antibody, Avidin coated wells, maximally diluted sample): 0.033 | ELISA absorbency at 410 nm ([7]; Anti-PMB, PBS coated wells): 0.016 | ELISA absorbency at 410 nm ([7]; Preimmune, Avidin coated wells): 0.010 | ELISA absorbency at 410 nm ([7]; Preimmune, PBS coated wells): 0.020
